Measurements from patent US9115093B2, “Substituted bicyclic dihydropyrimidinones and their use as inhibitors of neutrophil elastase activity” (Boehringer Ingelheim International GmbH, priority 2013, dated 2015).

How the values were obtained:
[1] = Metabolic stability with human liver microsomes; assay type: in vitro ADME; details: pooled human liver microsomes, 37° C., 1 mg/ml protein, NADPH
Protocol: Assay for the Determination of Metabolic Stability with Human Liver Microsomes
The metabolic degradation of the test compound is assayed at 37° C. with pooled human liver microsomes. The final incubation volume of […] per time point contains TRIS buffer pH 7.6 (0.1 M), magnesium chloride (5 mM), microsomal protein (1 mg/ml) and the test compound at a final concentration of […]. Following a short preincubation period at 37° C., the reactions are initiated by addition of beta-nicotinamide adenine dinucleotide phosphate, reduced form (NADPH, 1 mM) and terminated by transfering an aliquot into acetonitrile after different time points. Additionally, the NADPH-independent degradation is monitored in incubations without NADPH, terminated at the last time point. The rol remaining test compound after NADPH independent incubation is reflected by the parameter c(control) (metabolic stability). The quenched incubations are pelleted by centrifugation (10′000 g, 5 min) An aliquot of the supernatant is assayed by LC-MS/MS for the amount of parent compound.
The half-life (t1/2 INVITRO) is determined by the slope of the semilogarithmic plot of the concentration-time profile. The intrinsic clearance (CL_[…]) is calculated by considering the amount of protein in the incubation: CL_[…][μl/min/mg protein]=(ln 2/(half-life [min]*protein content [mg/ml]))*1′000.
The half-life (t1/2 INVITRO) values of selected compounds in the metabolic stability assay described above are listed in Table 15.

[2] = Metabolic stability with human hepatocytes; assay type: in vitro ADME; details: human hepatocyte suspension, 1 μM, scaled with well stirred model
Protocol: Assay for the Determination of Metabolic Stability with Human Hepatocytes
The metabolic degradation of the test compound is assayed in a human hepatocyte suspension. Human hepatocytes (typically cryopreserved) are incubated in an appropriate buffer system (e.g. Dulbecco's modified eagle medium plus 3.5 μg glucagon/500 mL, 2.5 mg insulin/500 mL and 3.75 mg/500 mL hydrocortison) containing 5% species serum. Following a (typically) […] preincubation in an incubator (37° C., 10% CO2), 5 μl of test compound solution (80 μM; from 2 mM stock solution in DMSO diluted 1:25 with medium) are added into 395 μl hepatocyte suspension (cell density in the range 0.25-5*10^6 cells/mL, typically 1*10^6 cells/mL; final concentration of test compound 1 μM, final DMSO concentration […]). The cells are incubated for six hours (incubator, orbital shaker) and samples (25 μl) are taken at 0, 0.5, 1, 2, 4 and 6 hours. Samples are transferred into acetonitrile and pelleted by centrifugation (5 min). The supernatant is transferred to a new 96-deepwell plate, evaporated under nitrogen and resuspended. The decline of parent compound is analyzed by LC-MS/MS.
The intrinsic clearance CL_[…] is calculated as follows: CL_[…]=Dose/AUC=(C0/CD)/(AUD+clast/k)*1′000/60 (C0: initial concentration in the incubation [μM], CD: cell density of vital cells [10^6 cells/mL], AUD: area under the data [μM*h], clast: concentration of last data point [μM], k: slope of the regression line for parent decline [h^−1])
The calculated in vitro hepatic intrinsic clearance can be scaled up to the intrinsic in vivo hepatic clearance and used to predict hepatic in vivo blood clearance (CL) by the use of a is liver model (well stirred model): CL_[…]_INVIVO [ml/min/kg]=(CL_[…] [μL/min/10^6 cells]* hepatocellularity[10^6 cells/g liver]*liver factor[g/kg bodyweight])/1′000 CL[ml/min/kg]=CL_[…]_INVIVO [ml/min/kg]*hepatic blood flow [ml/min/kg]/(CL_[…]_INVIVO [ml/min/kg]+hepatic blood flow [ml/min/kg]) Qh[%]=CL[ml/min/kg]/hepatic blood flow[ml/min/kg]) (Hepatocellularity, human: 120*10^6 cells/g liver; lver factor, human: 25.7 g/kg bodyweight; blood flow, human: 21 ml/(min*kg))
The predicted human hepatic in vivo blood clearance (CL) of selected compounds in the metabolic stability assay described above are listed in Table 16.

neutrophil elastase [3] = molecular target: T1, neutrophil elastase (Homo sapiens, UniProt P08246); assay: Neutrophil elastase inhibitory activity in human plasma; assay type: biochemical; parameters: The stimulated blood is centrifuged to generate the neutrophil elastase enriched plasma; from tissue; host or cells: plasma from zymosan-stimulated citrated whole blood of healthy human donors; details: neutrophil elastase enriched human plasma (zymosan-stimulated blood), substrate MeOSuc-Ala-Ala-Pro-Val-AMC
T1 sequence (P08246 30-247 limits assumed): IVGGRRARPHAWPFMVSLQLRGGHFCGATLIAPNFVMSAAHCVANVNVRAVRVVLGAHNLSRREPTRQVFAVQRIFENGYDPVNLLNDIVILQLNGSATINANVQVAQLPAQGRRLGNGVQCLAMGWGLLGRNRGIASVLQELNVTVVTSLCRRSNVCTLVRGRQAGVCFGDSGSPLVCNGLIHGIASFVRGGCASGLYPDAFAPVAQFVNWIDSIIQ
Protocol: Assay for the Determination of Neutrophil Elastase Inhibitory Activity in Human Plasma
Citrated blood from human healthy donors is mixed with zymosan suspension and incubated at room temperature. This leads to the stimulation of neutrophils and the release of neutrophil elastase into the plasma. The stimulated blood is centrifuged to generate the neutrophil elastase enriched plasma.
Preparation of Zymosan Working Solution:
• single 45 ml blood sample is taken into a 50 ml tube containing citrate (3.13%, 5 mL) and the tube is gently inverted 4 times. • Immediately after blood sampling, zymosan working solution (5 mL) is added. • After the addition of zymosan working solution, the tubes are capped, mixed gently and incubated at 22° C. for 15 min on a shaker at 20 rpm. • Make 10 ml aliquots after the incubation time. • Centrifuge the 15 ml tubes at 800 g for […] at 4° C. in a Jouan centrifuge. • Harvest the plasma and make 1-5 ml aliquots. • Store the plasma at −80° C.
Various concentrations of the neutrophil elastase inhibitor are incubated with plasma. Subsequently, the enzyme activity is measured using the fluorogenic substrate MeOSuc-Ala-Ala-Pro-Val-AMC (Bachem Cat. No. 1-1270, substrate concentration: 250 μM, pH 7.5, 25 mM TRIS buffer, 250 mM NaCl) in analogous fashion as described for the human neutrophil assay. A dose response curve is generated to calculate the EC50 of the inhibitor. The analysis of the data is performed by the calculation of the percentage of fluorescence in the presence of the test compound compared to the fluorescence of the vehicle control after subtracting the background fluorescence: An inhibitor of the neutrophil elastase enzyme will give values between 100% control (no inhibition) and 0% control (complete inhibition). The human plasma shift of selected compounds can be calculated using the following equation: Human plasma shift=(EC50 in human plasma assay)/(IC50 in human neutrophil elastase assay) The EC50 values of selected compounds in the human plasma assay described above are listed in Table 14.

neutrophil elastase [4] = molecular target: T1, neutrophil elastase; assay: Human Neutrophil Elastase Assay; assay type: biochemical; parameters: purchased Calbiochem 324681; details: substrate MeOSuc-Ala-Ala-Pro-Val-AMC, pH 7.5, room temperature
How it was run: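 Readout: AMC fluorescence (ex 380, em 460 nm) after 60 min room-temperature reaction with 250 nM MeOSuc-AAPV-AMC, following 15 min compound–enzyme preincubation. Buffer: Tris/NaCl pH 7.5, 0.01% BSA.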

Compound | t1/2 INVITRO [1] | CL (predicted human hepatic in vivo blood clearance) [2] | EC50 (neutrophil elastase [3]) | IC50 (neutrophil elastase [4])
CS(=O)(=O)c1cc(C#N)ccc1C1C2=C(CCCC2=O)N(c2cccc(C(F)(F)F)c2)C(=O)N1CCCO (stereo not drawn) [Example 58.2] | >2.17 h | 3 mL/min/kg | – | –
CCS(=O)(=O)c1cc(C#N)ccc1[C@H]1NC(=O)N(c2cccc(C(F)(F)F)c2)C2=C1C(=O)CCC2 (single isomer, unassigned) [Example 54A] | – | 2 mL/min/kg | – | –
CS(=O)(=O)c1cc(C#N)ccc1[C@H]1NC(=O)N(c2cccc(C(F)(F)F)c2)C2=C1C(=O)CCC2 (single isomer, unassigned) [Example 18A] | – | 0 mL/min/kg | – | –
CS(=O)(=O)c1cc(C#N)ccc1[C@H]1NC(=O)N(c2cccc(C(F)F)c2)C2=C1C(=O)CCC2 (single isomer, unassigned) [Example 19A] | – | 0 mL/min/kg | – | –
CN1C(=O)N(c2cccc(C(F)(F)F)c2)C2=C(C(=O)CCC2)[C@H]1c1ccc(C#N)cc1S(C)(=O)=O [Example 48, (S)-4-(3-Methyl-2,5-dioxo-1-(3-(trifluoromethyl)phenyl)-1,2,3,4,5,6,7,8-octahydroquinazolin-4-yl)-3-(methylsulfonyl)benzonitrile] | – | 3 mL/min/kg | 1 nM | 1 nM
CNC(=O)N1C(=O)N(c2cccc(C(F)(F)F)c2)C2=C(C(=O)CCC2)[C@H]1c1ccc(C#N)cc1S(C)(=O)=O (single isomer, unassigned) [Example 47A] | – | 0 mL/min/kg | – | –
CN(CCN1CCOCC1)C(=O)CN1C(=O)N(c2cccc(C(F)(F)F)c2)C2=C(C(=O)CCC2)C1c1ccc(C#N)cc1 (stereo not drawn) [Example 36.68] | – | – | – | 8.7 nM
N#Cc1ccc(C2NC(=O)N(c3cccc(C(F)(F)F)c3)C3=C2C(=O)CC(C(=O)O)C3)cc1 (stereo not drawn) [Example 10, 4-(4-Cyanophenyl)-2,5-dioxo-1-(3-(trifluoromethyl)phenyl)-1,2,3,4,5,6,7,8-octahydroquinazoline-7-carboxylic acid] | – | – | – | 48.5 nM

More lines, now with the values ahead:

t1/2 INVITRO [1] | CL (predicted human hepatic in vivo blood clearance) [2] | EC50 (neutrophil elastase [3]) | IC50 (neutrophil elastase [4]) | Compound
>2.17 h | 0 mL/min/kg | – | – | CS(=O)(=O)c1cc(C#N)ccc1[C@@H]1C2=C(CCCC2=O)N(c2cccc(C(F)(F)F)c2)C(=O)N1C(=O)NC1CCOCC1 [Example 75.16]
>2.17 h | 0 mL/min/kg | – | – | CC(C)(O)CNC(=O)N1C(=O)N(c2cccc(C(F)(F)F)c2)C2=C(C(=O)CCC2)C1c1ccc(C#N)cc1 (stereo not drawn) [Example 70.9]
– | – | < 1 nM | < 1 nM | CS(=O)(=O)c1cc(C#N)ccc1[C@@H]1C2=C(CCCC2=O)N(c2cccc(C(F)(F)F)c2)C(=O)N1C(N)=O [Example 75, (S)-4-(4-Cyano-2-(methylsulfonyl)phenyl)-2,5-dioxo-1-(3-(trifluoromethyl)phenyl)-1,2,5,6,7,8-hexahydroquinazoline-3(4H)-carboxamide]
– | 0 mL/min/kg | 1 nM | < 1 nM | CS(=O)(=O)c1cc(C#N)ccc1[C@@H]1C2=C(CCCC2=O)N(c2cccc(C(F)(F)F)c2)C(=O)N1S(C)(=O)=O [Example 68, (S)-3-(Methylsulfonyl)-4-(3-(methylsulfonyl)-2,5-dioxo-1-(3-(trifluoromethyl)phenyl)-1,2,3,4,5,6,7,8-octahydroquinazolin-4-yl)benzonitrile]
– | 0 mL/min/kg | 1 nM | 3.6 nM | CN1C(=O)N(c2ccnc(C(F)(F)F)c2)C2=C(C(=O)CCC2)C1c1ccc(C#N)cc1S(C)(=O)=O (stereo not drawn) [Example 64, 4-(3-Methyl-2,5-dioxo-1-(2-(trifluoromethyl)pyridin-4-yl)-1,2,3,4,5,6,7,8-octahydroquinazolin-4-yl)-3-(methylsulfonyl)benzonitrile]
– | – | – | 1.2 nM | CCNC(=O)N1C(=O)N(c2ccnc(C(F)(F)F)c2)C2=C(C(=O)CCC2)C1c1ccc(C#N)cc1 (stereo not drawn) [Example 76.2]
